# Reference: patent US20240327408A1, “COMPOUNDS CONTAINING TETRAHYDRONAPHTHYRIDINONE OR TETRAHYDROPYRIDOPYRIMIDINONE SKELETON, PREPARATION METHOD THEREFOR AND PHARMACEUTICAL USE THEREOF” (CHINA PHARMACEUTICAL UNIVERSITY, priority 2021, published 2024)
# What was measured:
# [1] = system: xenograft solid tumor models such as colon cancer, breast cancer, and brain tumors; conditions: Oncotarget 2016, 7, 74380-74392; cited from earlier work
# [2] = system: MV4; 11 cells; test: inhibiting the growth of MV4; 11 cells; assay type: cell-based; conditions: Homo sapiens
# [3] = target: T1, hClpP (Homo sapiens, UniProt Q16740); test: activating ClpP hydrolysis of FITC-casein (fluorescence kinetic detection); assay type: biochemical; conditions: hClpP 1 μM, FITC-Casein 4 μM, 37° C.
# T1 construct: made in house
# T1 sequence (Q16740 57-277): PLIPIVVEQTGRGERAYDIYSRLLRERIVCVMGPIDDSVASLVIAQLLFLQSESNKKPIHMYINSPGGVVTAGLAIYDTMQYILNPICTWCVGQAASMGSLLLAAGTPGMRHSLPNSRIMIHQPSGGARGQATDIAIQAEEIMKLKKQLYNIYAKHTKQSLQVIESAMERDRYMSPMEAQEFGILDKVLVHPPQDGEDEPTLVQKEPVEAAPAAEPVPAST
# Outline: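 hClpP at 1 μM final preincubated with compounds (assay-buffer dilutions 200 μM–2 nM, before mixing) 30 min at 37 °C, then 4 μM final FITC-casein added. Fluorescence read kinetically at 37 °C every 1 min for 15 min, duplicate wells.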
SMILES,IC50 [2] [nM],EC50 [3] [nM],tumor regression in xenograft solid tumor models [1]
"Cc1ccccc1CN1C(=O)C2=C(CCN(Cc3ccccc3)C2)N2CCN=C12 [ONC201, reference compound]",100 to 10000,,cause tumor regression
"O=c1c2c(n3ccnc3n1Cc1ccc3c(c1)OCO3)CCN(Cc1cccc(Cl)c1)C2 [Compound I-147, 7-(3-chlorobenzyl)-4-([1,3]benzodioxol-5-ylmethyl)-6,7,8,9-tetrahydroimidazo[1,2-a]pyrido[3,4-e]pyrimidine-5(4H)-one]",1000 to 10000,1000 to 10000,
"N#Cc1cccc(CN2CCc3c(c(=O)n(Cc4ccc(C(F)(F)F)cc4)c4cncn34)C2)c1 [Compound I-165, 7-(3-cyanobenzyl)-4-(4-trifluoromethylbenzyl)-6,7,8,9-tetrahydroimidazo[1,5-a]pyrido[3,4-e]pyrimidine-5(4H)-one]",1000 to 10000,1000 to 10000,
"O=c1c2c(c3cccnc3n1Cc1ccccc1)CCN(Cc1cccc(Cl)c1)C2 [Compound I-13, 6-benzyl-3-(3-chlorobenzyl)-2,3,4,6-tetrahydropyrido[3,4-c][1,8]naphthyridine-5-(1H)-one]",< 1000,< 1000,

# Further lines, with some results ahead:
IC50 [2] [nM],EC50 [3] [nM],SMILES,tumor regression in xenograft solid tumor models [1]
< 1000,< 1000,"O=c1c2c(c3cccnc3n1Cc1cccc(F)c1)CCN(Cc1ccccc1)C2 [Compound I-46, 3-benzyl-6-(3-fluorobenzyl)-2,3,4,6-tetrahydropyrido[3,4-c][1,8]naphthyridine-5-(1H)-one]",
< 1000,< 1000,"O=c1c2c(c3sccc3n1Cc1ccc(C(F)(F)F)cc1)CCN(Cc1ccccc1)C2 [Compound I-103, 7-benzyl-4-(4-trifluoromethylbenzyl)-6,7,8,9-tetrahydrothieno[3,2-C][2,7]naphthyridine-5(4H)-one]",
< 1000,< 1000,"N#Cc1cccc(CN2CCc3c(c(=O)n(Cc4ccc(F)cc4)c4nccn34)C2)c1 [Compound I-116, 7-(3-cyanobenzyl)-4-(4-fluorobenzyl)-6,7,8,9-tetrahydroimidazo[1,2-a]pyrido[3,4-e]pyrimidine-5(4H)-one]",
< 1000,< 1000,"O=c1c2c(n3ccnc3n1Cc1ccc(Cl)cc1)CCN(Cc1cccc(Cl)c1)C2 [Compound I-119, 7-(3-chlorobenzyl)-4-(4-chlorobenzyl)-6,7,8,9-tetrahydroimidazo[1,2-a]pyrido[3,4-e]pyrimidine-5(4H)-one]",
< 1000,< 1000,"N#Cc1cccc(CN2CCc3c(c(=O)n(Cc4ccc(C(F)(F)F)cc4)c4nccn34)C2)c1 [Compound I-131, 7-(3-cyanobenzyl)-4-(4-trifluoromethylbenzyl)-6,7,8,9-tetrahydroimidazo[1,2-a]pyrido[3,4-e]pyrimidine-5(4H)-one]",
< 1000,< 1000,"O=c1c2c(c3cccnc3n1Cc1ccc(Br)cc1)CCN(Cc1cccc(Cl)c1)C2 [Compound I-78, 3-(3-chlorobenzyl)-6-(4-bromobenzyl)-2,3,4,6-tetrahydropyrido[3,4-c][1,8]naphthyridine-5-(1H)-one]",
